# Earlier results in article PMC10343355, “Finding the Right Solvent: A Novel Screening Protocol for Identifying Environmentally Friendly and Cost-Effective Options for Benzenesulfonamide” (Molecules, 2023).
# Like-named read-outs stand apart in the source and are kept apart here.
# Parameters: method as in Li et al.
# Conditions: ref Li et al., cited from earlier work
smiles,measurement,setting,value
"NS(=O)(=O)c1ccccc1 [BSA, Benzenesulfonamide]",log(x1)exp,"Acetonitrile, 0.00 °C",-1.46
same,log(x1)exp,"Acetonitrile, 6.00 °C",-1.40
same,log(x1)exp,"Acetonitrile, 10.30 °C",-1.35
same,log(x1)exp,"Acetonitrile, 15.80 °C",-1.30
same,log(x1)exp,"Acetonitrile, 20.10 °C",-1.25
same,log(x1)exp,"Acetonitrile, 25.70 °C",-1.19
same,log(x1)exp,"Acetonitrile, 30.00 °C",-1.14
same,log(x1)exp,"Acetonitrile, 35.00 °C",-1.09
same,log(x1)exp,"Acetonitrile, 40.00 °C",-1.03
same,log(x1)exp,"Acetonitrile, 44.50 °C",-0.98
same,log(x1)exp,"Acetonitrile, 50.00 °C",-0.93
same,log(x1)exp,"Cyclopentanone, 0.00 °C",-0.86
same,log(x1)exp,"Cyclopentanone, 6.00 °C",-0.84
same,log(x1)exp,"Cyclopentanone, 10.70 °C",-0.82
same,log(x1)exp,"Cyclopentanone, 16.00 °C",-0.80
same,log(x1)exp,"Cyclopentanone, 20.60 °C",-0.78
same,log(x1)exp,"Cyclopentanone, 26.00 °C",-0.75
same,log(x1)exp,"Cyclopentanone, 30.60 °C",-0.73
same,log(x1)exp,"Cyclopentanone, 36.00 °C",-0.70
same,log(x1)exp,"Cyclopentanone, 40.20 °C",-0.68
same,log(x1)exp,"Dichloromethane, 0.00 °C",-2.87
same,log(x1)exp,"Dichloromethane, 6.00 °C",-2.76
same,log(x1)exp,"Dichloromethane, 10.30 °C",-2.67
same,log(x1)exp,"Dichloromethane, 15.80 °C",-2.56
same,log(x1)exp,"Dichloromethane, 20.10 °C",-2.48
same,log(x1)exp,"Dichloromethane, 25.70 °C",-2.37
same,log(x1)exp,"Dichloromethane, 30.00 °C",-2.31
same,log(x1)exp,"Dichloromethane, 35.00 °C",-2.22
same,log(x1)exp,"Dichloromethane, 39.00 °C",-2.16
same,log(x1)exp,"Ethyl Acetate, 0.00 °C",-1.49
same,log(x1)exp,"Ethyl Acetate, 6.00 °C",-1.44
same,log(x1)exp,"Ethyl Acetate, 10.30 °C",-1.41
same,log(x1)exp,"Ethyl Acetate, 15.80 °C",-1.37
same,log(x1)exp,"Ethyl Acetate, 20.10 °C",-1.33
same,log(x1)exp,"Ethyl Acetate, 25.70 °C",-1.29
same,log(x1)exp,"Ethyl Acetate, 30.00 °C",-1.25
same,log(x1)exp,"Ethyl Acetate, 35.00 °C",-1.21
same,log(x1)exp,"Ethyl Acetate, 40.00 °C",-1.17
same,log(x1)exp,"Ethyl Acetate, 44.50 °C",-1.13
same,log(x1)exp,"Ethyl Acetate, 50.00 °C",-1.09
same,log(x1)exp,"Ethyl Formate, 0.00 °C",-1.74
same,log(x1)exp,"Ethyl Formate, 6.00 °C",-1.69
same,log(x1)exp,"Ethyl Formate, 10.30 °C",-1.64
same,log(x1)exp,"Ethyl Formate, 15.80 °C",-1.59
same,log(x1)exp,"Ethyl Formate, 20.10 °C",-1.54
same,log(x1)exp,"Ethyl Formate, 25.70 °C",-1.48
same,log(x1)exp,"Ethyl Formate, 30.00 °C",-1.44
same,log(x1)exp,"Ethyl Formate, 35.00 °C",-1.38
same,log(x1)exp,"Ethyl Formate, 40.00 °C",-1.33
same,log(x1)exp,"Ethyl Formate, 44.50 °C",-1.28
same,log(x1)exp,"Ethyl Formate, 50.00 °C",-1.22
same,log(x1)exp,"Isobutanol, 0.00 °C",-2.41
same,log(x1)exp,"Isobutanol, 6.00 °C",-2.35
same,log(x1)exp,"Isopentanol, 0.00 °C",-2.38
same,log(x1)exp,"Isopentanol, 6.00 °C",-2.31
same,log(x1)exp,"Isopentanol, 10.70 °C",-2.25
same,log(x1)exp,"Isopentanol, 16.00 °C",-2.17
same,log(x1)exp,"Isopentanol, 20.60 °C",-2.09
same,log(x1)exp,"Isopentanol, 26.00 °C",-2.00
same,log(x1)exp,"Isopentanol, 30.60 °C",-1.92
same,log(x1)exp,"Isopentanol, 36.00 °C",-1.83
same,log(x1)exp,"Isopentanol, 40.20 °C",-1.76
same,log(x1)exp,"Isopentanol, 46.00 °C",-1.68
same,log(x1)exp,"Isopentanol, 51.30 °C",-1.60
same,log(x1)exp,"Methanol, 0.00 °C",-1.53
same,log(x1)exp,"Methanol, 6.00 °C",-1.49
same,log(x1)exp,"Methanol, 10.30 °C",-1.45
same,log(x1)exp,"Methanol, 15.80 °C",-1.39
same,log(x1)exp,"Methanol, 20.10 °C",-1.34
same,log(x1)exp,"Methanol, 25.70 °C",-1.27
same,log(x1)exp,"Methanol, 30.00 °C",-1.21
same,log(x1)exp,"Methanol, 40.00 °C",-1.09
same,log(x1)exp,"Methanol, 44.50 °C",-1.03
same,log(x1)exp,"Methanol, 50.00 °C",-0.97
same,log(x1)exp,"n-Butanol, 46.00 °C",-1.56
same,log(x1)exp,"n-Butanol, 51.30 °C",-1.49
same,log(x1)exp,"n-Pentanol, 36.00 °C",-1.78
same,log(x1)exp,"n-Pentanol, 40.20 °C",-1.73
same,log(x1)exp,"n-Pentanol, 46.00 °C",-1.63
same,log(x1)exp,"n-Pentanol, 51.30 °C",-1.56
same,log(x1)exp,"n-Propanol, 0.00 °C",-2.09
same,log(x1)exp,"n-Propanol, 6.00 °C",-2.04
same,log(x1)exp,"n-Propanol, 10.70 °C",-1.99
same,log(x1)exp,"n-Propanol, 16.00 °C",-1.91
same,log(x1)exp,"n-Propanol, 20.60 °C",-1.84
same,log(x1)exp,"n-Propanol, 26.00 °C",-1.76
same,log(x1)exp,"n-Propanol, 30.60 °C",-1.68
same,log(x1)exp,"n-Propanol, 36.00 °C",-1.60
same,log(x1)exp,"n-Propanol, 40.20 °C",-1.53
same,log(x1)exp,"n-Propanol, 46.00 °C",-1.44
same,log(x1)exp,"n-Propanol, 51.30 °C",-1.37
same,log(x1)exp,"solvent Isobutanol, T 10.70 °C, mole fraction solubility",-2.27
same,log(x1)exp,"solvent Isobutanol, T 16.00 °C, mole fraction solubility",-2.18
same,log(x1)exp,"solvent Isobutanol, T 20.60 °C, mole fraction solubility",-2.09
same,log(x1)exp,"solvent Isobutanol, T 26.00 °C, mole fraction solubility",-2.00
same,log(x1)exp,"solvent Isobutanol, T 30.60 °C, mole fraction solubility",-1.92
same,log(x1)exp,"solvent Isobutanol, T 36.00 °C, mole fraction solubility",-1.83
same,log(x1)exp,"solvent Isobutanol, T 40.20 °C, mole fraction solubility",-1.75
same,log(x1)exp,"solvent Isobutanol, T 46.00 °C, mole fraction solubility",-1.67
same,log(x1)exp,"solvent Isobutanol, T 51.30 °C, mole fraction solubility",-1.59
